PMC8811472, “Systematic In Vitro Evaluation of a Library of Approved and Pharmacologically Active Compounds for the Identification of Novel Candidate Drugs for KMT2A-Rearranged Leukemia” (Frontiers in Oncology, 2022)
pIC50: −log10 of the molar value.

How the values were obtained:
CEM cells = test: 72-hour resazurin-based cytotoxicity assay, CEM; parameters: species or system human; conditions: Homo sapiens, CCRF-CEM, KMT2A-wt, childhood T-cell ALL
Protocol: (§1) All cell lines used in this study were mycoplasma-free and have been authenticated using STR profiling. Cells were cultured as previously described ([7], [8]). Characteristics of the leukemia cell lines used in this study are described in Supplementary Table 1 . Peripheral blood mononuclear cells from healthy donors were purchased from Australian Red Cross.
(§2) The cytotoxicity of drugs was assessed through resazurin-based assays and the inhibitory concentration resulting in 50% reduction of cell survival relative to control (IC50) was calculated as previously described ([7]). In synergy studies, cells were exposed to a dilution series of compounds, as single agents or in combination, in resazurin-based assays (72 hours) as described ([8]–[10]). The occurrence of synergy was determined with the Bliss Independence model as previously described ([8]–[10]). Bliss Prediction curves indicated the predicted percentage viability of the cells when exposed to the combination of compounds if both compounds work additively together. Synergy was visualised as the presence of a lower cell viability upon combination of two compounds compared to the viability predicted based on the presence of an additive effect of the compounds (i.e., the viability curve of the combination runs below the Bliss Prediction curve). The percentage of apoptotic cells was assessed by annexin V and 7-Aminoactinomycin D (7-AAD) (BD Biosciences, Australia) flow cytometry as previously described ([7]).

REH cells = test: 72-hour resazurin-based cytotoxicity assay, REH; parameters: species or system human; conditions: Homo sapiens, KMT2A-wt, pre-B cell ALL
Protocol: as §1, §2

MOLM-13 cells = test: 72-hour resazurin-based cytotoxicity assay, MOLM-13; type: cell-based, human; conditions: Homo sapiens, MOLM-13, KMT2A-r t(9;11), AML
Protocol: as §1, §2

PER-485 cells = test: 72-hour resazurin-based cytotoxicity assay, PER-485; type: cell-based, human; conditions: PER-485, KMT2A-r t(4;11), infant ALL derived
Protocol: as §1, §2

THP-1 cells = test: 72-hour resazurin-based cytotoxicity assay, THP-1; type: cell-based, human; conditions: Homo sapiens, THP-1, KMT2A-r t(9;11), infant AML
Protocol: as §1, §2

RS4;11 cells = test: 72-hour resazurin-based cytotoxicity assay, RS4;11; parameters: species or system human; conditions: Homo sapiens, RS4-11, 72 h, RS4;11, KMT2A-r t(4;11), pre-B cell ALL
Protocol: as §1, §2

Jurkat cells = test: 72-hour resazurin-based cytotoxicity assay, Jurkat; parameters: species or system human; conditions: Homo sapiens, KMT2A-wt, childhood T-cell ALL
Protocol: as §1, §2

SEMK2 cells = test: 72-hour resazurin-based cytotoxicity assay, SEMK2; parameters: species or system human; conditions: Homo sapiens, SEMK2, KMT2A-r t(4;11), pre-B cell childhood ALL
Protocol: as §1, §2

MRC-5 cells = test: 72-hour resazurin-based cytotoxicity assay, MRC-5; type: cell-based, human; conditions: Homo sapiens, MRC5, MRC-5, non-malignant, normal lung
Protocol: as §1, §2

[1] = system: KMT2A-r PER-485 and KMT2A-wt REH cells; test: 72-hour resazurin-based viability assay, PER-485 versus REH; type: cell-based, human
Protocol: as §2

Question: What does the source list for `CN(C(=O)CN(CCO)CC(=O)N(C)C(C)(C)Cc1ccccc1)C(C)(C)Cc1ccccc1` [Oxethazaine, oxethazaine]?
Answer: pIC50 (CEM cells): 4.97; pIC50 (REH cells): 5.31; pIC50 (MOLM-13 cells): 5.42; pIC50 (PER-485 cells; Homo sapiens): 5.44; pIC50 (THP-1 cells): 4.82; pIC50 (RS4;11 cells): 5.05; pIC50 (Jurkat cells): 4.72; pIC50 (SEMK2 cells): 5.05; pIC50 (MRC-5 cells): < 4.70

Question: `O=C(O)c1cc2c(cn1)[nH]c1ccccc12` [β-CCB, β-carboline-3-carboxylate] was tested. Which pIC50 (PER-485 cells) did it give?
Answer: The pIC50 was 5.59.

Question: With `CCCCCCCOc1ccc(O)cc1` [AC-45594] as the compound, how does the “selective cytotoxicity towards KMT2A-r leukemia cells” value [1] read?
Answer: The value was “did not display selective cytotoxicity”.
